Experimental data as given in patent US9757477B2, “Imaging brown adipose tissue with curcumin derivatives” (The General Hospital Corporation, priority 2013, dated 2017).

Assays:
[1] = tested on: interscapular BAT; assay: Monitoring interscapular BAT mass change in STZ-induced diabetic mice; type: in vivo, Balb/c mice
Procedure: Monitoring was performed as follows. Two-month old Balb/c mice (n=5) were injected with STZ (80 mg/kg) for 7 days. When blood glucose levels reached 250 mg/dL on two consecutive days, mice were subjected to NIR imaging with CRANAD-29. Before imaging, the fur around the interscapular area was removed. Images were acquired at pre-injection, as well as 2- and 4-hours after i.v. injection. After imaging, mice were sacrificed, BAT from both groups was dissected, and weighted, and the linear correlation was established between in vivo fluorescence signal and weight of the dissected BATs. The same imaging procedure was conducted with the control group injected with the same volume of saline for 7 days (n=5).

[2] = tested on: differentiated 3T3-L1 cells; assay: Probe uptake in differentiated 3T3-L1 cells (IVIS and two-photon imaging, competition); type: cell-based; conditions: for uptake with triglyceride competition: triglyceride added with probe, two-photon microscopy and IVIS
Procedure: (§1) To investigate the facilitated diffusion of CRANAD-2, the time courses of CRANAD-2 uptake in 3T3-L1 cells were compared before and after differentiation. Two-photon imaging for 3T3-L1 cells was performed as follows. Fibroblast 3T3-L1 cells were differentiated following the protocol provided by Zenbio, Inc. (protocol No. ZBM0009.02). Ten microliters of CRANAD-2 (250 μM in DMSO) was added to the differentiated cells (1.0 ml). Cells were imaged after 10 min of incubation. A 940 nm laser was first used to capture an image for CRANAD-2 in 570-620 nm channel (Prairie Two-photon microscope, Middleton, Wis.). Next, the laser was tuned to 750 nm to capture autofluorescence of the cells to outline cell morphology.
For triglyceride competition, stock solutions of CRANAD-2 (250 μM) and triglyceride (5 mM) in DMSO were prepared. Before imaging, 10 μl of the stock solution was added to the cells.
(§2) IVIS imaging of 3T3-L1 cells with CRANAD-2 was performed as follows. To a 6-well plate seeded with preadipocytes or differentiated adipocytes, a 10 μL solution of CRANAD-2 (250 μM in DMSO) was added. The plate was subjected to imaging using IVIS imaging system with Ex=605 nm, Em=660 nm before and after addition of CRANAD-2. For triglyceride competition, the same protocol for two-photon imaging was used. The images were acquired at 20 min after addition of CRANAD-2. Studies were performed in triplicate.
(§3) The uptake of CRANAD-29 in 3T3-L1 cells before and after differentiation was compared. IVIS imaging of 3T3-L1 cells with CRANAD-29 was performed as follows. To a 6-well plate seeded with preadipocytes or differentiated adipocytes, a 10 μL solution of CRANAD-29 (250 μM in DMSO) was added. The plate was subjected to imaging using IVIS imaging system with Ex=640 nm, Em=700 nm before and after addition of CRANAD-29. For triglyceride competition and Hexarelin inhibition, the similar protocol for CRANAD-2 imaging was used. The final concentration of hexarelin was 12.5 μM, and the images were acquired at 3 hours after addition of CRANAD-29 and triglyceride/Hexarelin. Studies were performed in triplicate.

[3] = tested on: interscapular BAT; assay: Monitoring BAT activation under cold exposure; type: in vivo, balb/c mice; conditions: 4° C. cold exposure
Procedure: BAT could be activated under various conditions including cold exposure. In this report, whether CRANAD-29 could be used to monitor BAT activation under these conditions was investigated as follows. Two-month old balb/c mice (n=5) were placed in a 4° C. cold room for 2 hours before i.v. injection of CRANAD-29. Images were acquired at 1-, 2-, 4-hours after probe injection, and mice were placed in the cold room between imaging sessions. Control mice (n=5) were placed in a 25° C. room. Images were captured at the same time points after CRANAD-29 injection.

[4] = tested on: undifferentiated 3T3-L1 cells; assay: Probe uptake in undifferentiated 3T3-L1 cells (IVIS imaging); type: cell-based
Procedure: as §1, §2, §3

[5] = tested on: inguinal sWAT; assay: Monitoring browning of subcutaneous WAT after CL 316,243 treatment; type: in vivo, C57BL6 mice; conditions: after 12 days CL 316,243 1.0 mg/kg i.p.
Procedure: Two-month old C57BL6 mice (n=5) were i.p. injected CL 316,243 (100 uL, 1.0 mg/kg) for 12 days, and the control mice (n=5) were i.p. injected with saline. On the 13th day, both groups were imaged after i.v. injection of CRANAD-29. Images were acquired at 1-, 2-, 4-hours after the probe injection. After the last imaging session, inguinal sWAT were dissected after scarification of the mice, and the dissected sWAT tissue was subjected to qPCR for UCP-1 expression and H&E staining

[6] = tested on: BAT cells induced from wild-type brown preadipocytes; assay: In vitro staining of BMPs-induced BAT cells (live cell confocal); type: cell-based; conditions: live cell confocal images

Compound | fluorescence signal from diabetic mice vs control group ([1]; STZ 80 mg/kg for 7 days, CRANAD-29 i.v.) | correlation between BAT mass and fluorescence signal ([1]; STZ-treated and normal animals) | time to uptake plateau ([2]; differentiated 3T3-L1 cells) | reduction of uptake in glutaraldehyde-fixed cells ([2]; differentiated 3T3-L1 cells fixed with glutaraldehyde) [%] | uptake with Hexarelin (CD36 specific ligand) ([2]; hexarelin 12.5 μM, images at 3 hours) | uptake with triglyceride competition [2] | signal of cold-exposed animals vs control group ([3]; 1 hour after probe injection) [fold] | signal of cold-exposed animals vs control group ([3]; 2 hours after probe injection) [fold] | signal of cold-exposed animals vs control group ([3]; 4 hours after probe injection) [fold] | uptake in undifferentiated cells over the time course [4] | CRANAD-29 signal around inguinal subcutaneous WAT, treated vs control group [5] | fluorescent signal from interscapular BAT area, treated vs control group [5] | staining of oil droplets in BAT cells [6] | uptake within 1 minute, of the maximal ([2]; differentiated 3T3-L1 cells) [%] | time to maximal uptake [4] [min]
F[B-]1(F)OC(/C=C/c2cc3c4c(c2)CCCN4CCC3)=CC(/C=C/c2cc3c4c(c2)CCCN4CCC3)=[O+]1 [CRANAD-29] | significantly lower | excellent direct correlation | around 90 minute | 70 | significantly inhibited by Hexarelin | significantly reduced by triglyceride | 1.65 | 1.59 | 1.53 | no apparent uptake | significantly higher | higher fluorescent signal | – | – | –
CN(C)c1ccc(/C=C/C2=CC(=C/C=C3C=CC(=[N+](C)C)C=C3)/O[B-](F)(F)O2)cc1 [CRANAD-2] | – | – | 15 min | – | – | significant decrease in uptake | – | – | – | – | – | – | able to clearly label oil droplets in BAT cells | 62 | ≤ 1
